Assay: xn = mol fraction of the nth substance listed
Settings: 100 kPa

COCCOCCOCCOCCOC + CCCCCC[n+]1ccn(C)c1.O=S(=O)([N-]S(=O)(=O)C(F)(F)F)C(F)(F)F
viscosity [mPa·s]
Settings	x1 = 0.099	x1 = 0.19	x1 = 0.276	x1 = 0.413	x1 = 0.544
278.15 K	171	130	109	78	50
283.15 K	126	97	81	60	–
288.15 K	–	74	63	–	–
293.15 K	74	57	–	–	–

CC(=O)[O-].CCCCCCCCCCCCCC[P+](CCCCCC)(CCCCCC)CCCCCC + COCCOCCOCCOCCOC
viscosity [mPa·s]
Settings	278.15 K	283.15 K	288.15 K	293.15 K	298.15 K	303.15 K	308.15 K	313.15 K	318.15 K	323.15 K
x2 = 0.103	1160	789	–	392	–	216	166	–	103	84
x2 = 0.207	–	–	332	244	184	142	112	89	73	60
x2 = 0.299	401	291	215	162	125	99	79	64	53	–
x2 = 0.4	257	191	–	111	–	70	57	–	–	–
x2 = 0.499	–	121	92	73	58	–	–	–	–	–

CCC=C[n+]1ccn(C)c1C.O=[N+]([O-])c1cn[n-]c1 + COCCOCCOCCOCCOC
viscosity [mPa·s]
Settings	278.15 K	283.15 K	288.15 K	293.15 K	298.15 K	303.15 K	308.15 K	313.15 K	318.15 K	323.15 K
x1 = 0.4	70	51	–	–	–	–	–	–	–	–
x1 = 0.5	139	97	70	53	–	–	–	–	–	–
x1 = 0.601	–	176	121	–	65	–	–	–	–	–
x1 = 0.701	622	385	249	169	–	89	69	53	–	–
x1 = 0.801	1280	737	447	288	195	–	101	77	60	–
x1 = 0.9	2810	–	–	525	338	228	161	–	89	70
x1 = 0.952	–	2200	–	706	–	289	204	140	104	–

CCCCCCCCCCCCCC[P+](CCCCCC)(CCCCCC)CCCCCC.O=[N+]([O-])c1c[n-]cn1 + COCCOCCOCCOCCOC
viscosity [mPa·s]
Settings	278.15 K	283.15 K	288.15 K	293.15 K	298.15 K	303.15 K	308.15 K	313.15 K	318.15 K	323.15 K
x2 = 0.189	–	–	726	522	384	290	222	173	138	111
x2 = 0.404	443	324	240	180	135	–	85	70	57	–

CCCCCCCCCCCC[P+](CCCC)(CCCC)CCCC.c1c[n-]nn1 + COCCOCCOCCOCCOC
viscosity [mPa·s]
Settings	x2 = 0.062	x2 = 0.123	x2 = 0.155	x2 = 0.214	x2 = 0.305	x2 = 0.395	x2 = 0.495	x2 = 0.596
278.15 K	1980	1230	907	671	–	226	131	–
283.15 K	1260	809	608	458	256	165	98	57
288.15 K	824	–	419	320	186	–	75	–
293.15 K	557	–	297	231	139	95	–	–
298.15 K	389	276	218	171	–	74	–	–
303.15 K	280	203	164	130	84	59	–	–

CCCCCCCC[P+](CC)(CC)CC.O=[N+]([O-])c1c[n-]cn1 + COCCOCCOCCOCCOC
viscosity [mPa·s]
Settings	278.15 K	283.15 K	288.15 K	293.15 K	298.15 K	303.15 K	308.15 K	313.15 K	318.15 K	323.15 K
x1 = 0.499	77	60	–	–	–	–	–	–	–	–
x1 = 0.599	–	93	72	56	–	–	–	–	–	–
x1 = 0.699	–	153	–	87	69	55	–	–	–	–
x1 = 0.8	385	274	198	148	113	88	70	57	–	–
x1 = 0.9	700	481	337	243	–	137	107	85	69	56
x1 = 1	–	838	–	398	286	212	160	124	98	78

Reference: a compilation of properties of binary mixtures (doi:10.1021/acs.jced.6b00596)
